Measured values reported in ChEMBL document CHEMBL1201862, “PubChem BioAssay data set” (2004).
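Briefly, cells in 96-well plates were exposed to five compound concentrations for 48 h, and endpoints were estimated by linear interpolation. GI50 = concentration required for 50% inhibition of growth.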 Activity calls are given as the source filed them. Cut-off read from the data, not from the text of the source: active = GI50 up to about 1.1 µM and inactive = higher.

Key:
Assay in all cases: inhibition of tumour cell growth, NCI panel, 48 h
[1] = test system: SN12C
[2] = test system: SK-MEL-2
[3] = test system: Malme-3M
[4] = test system: IGROV-1
[5] = test system: SK-MEL-28
[6] = test system: OVCAR-8
[7] = test system: TK-10
[8] = test system: 786-0
[9] = test system: HL-60
[10] = test system: KM-20L2
[11] = test system: MOLT-4
[12] = test system: KM12
[13] = test system: RPMI-8226
[14] = test system: SF-539
[15] = test system: HT-29
[16] = test system: ACHN
[17] = test system: HOP-92
[18] = test system: SF-268
[19] = test system: MDA-MB-435
[20] = test system: MDA-N

Measured: GI50

CN(N=O)C(=O)NC(CCCCNC(=O)OCc1ccccc1)C(=O)OCc1ccccc1 (stereo not given)
inactive: [1] 17.6 µM | [2] 30.1 µM | [3] 30.5 µM | [4] > 100 µM | [5] 25 µM | [6] 19.2 µM | [7] 33.4 µM | [8] 17.5 µM | [9] 25.2 µM | [10] > 100 µM | [11] 26.6 µM | [12] 48.2 µM | [13] 33.5 µM | [14] 17.4 µM | [15] 66.4 µM | [16] 17.7 µM | [17] 18.5 µM

O=C(/C=C/c1ccc(OCC(=O)N2CCN(c3ccccc3)CC2)cc1)c1ccccc1
inactive: [1] 19.7 µM | [2] > 26.5 µM | [3] 15 µM | [4] 32.9 µM | [5] 16 µM | [6] 10.9 µM | [7] 45.7 µM | [8] 14.6 µM | [9] 4.95 µM | [10] 8.95 µM | [11] 3.05 µM | [12] 4.52 µM | [13] 3.75 µM | [14] 16.9 µM | [18] 26.7 µM | [15] 4.33 µM | [16] 19.7 µM | [17] 29 µM

Nc1nccc2c1ncn2C1C=C(CO)C(O)C1O (stereo not given)
inactive: [1] 74.3 µM | [2] 91.6 µM | [3] 43.6 µM | [4] > 95.5 µM | [5] 2.73 µM | [19] > 100 µM | [6] 41.8 µM | [7] > 95.5 µM | [8] 60.1 µM | [9] 1.82 µM | [20] 2.99 µM | [10] > 87.1 µM | [11] 2.55 µM | [12] 1.6 µM | [13] 6.31 µM | [14] 11.8 µM | [18] > 96.4 µM | [15] 6.37 µM | [16] 20.6 µM | [17] 70.1 µM

CNC(=S)/N=C(\N)N(C)C
inactive: [1] > 100 µM | [3] > 100 µM | [4] > 100 µM | [5] > 100 µM | [6] > 100 µM | [7] > 100 µM | [8] > 100 µM | [9] > 100 µM | [10] > 100 µM | [11] > 100 µM | [12] > 100 µM | [13] > 100 µM | [14] > 100 µM | [18] > 100 µM | [15] > 100 µM | [16] > 100 µM | [17] > 100 µM

CCCCCCCCCCCCOC(=S)NCCCC
inactive: [1] 19.9 µM | [2] 18.7 µM | [3] 26.6 µM | [4] 25.6 µM | [5] 38 µM | [6] 18.7 µM | [7] 35.3 µM | [8] 24.6 µM | [9] 18.5 µM | [10] 18.7 µM | [11] 15.9 µM | [12] 20 µM | [13] 15.7 µM | [14] 21.3 µM | [18] 26.8 µM | [15] 19 µM | [16] 22.4 µM | [17] 20 µM

CC(C)C(=O)N1Cc2cc(Cl)cc(Cl)c2OC(=O)c2ccccc21
inactive: [1] 32.7 µM | [2] 21.5 µM | [3] 20.9 µM | [4] 29.5 µM | [5] 42.4 µM | [6] 33.7 µM | [7] 29.7 µM | [8] 35 µM | [9] 22.6 µM | [10] 23.7 µM | [11] 22.6 µM | [12] 32.8 µM | [13] 25.5 µM | [14] 18.7 µM | [18] 19.6 µM | [15] 34 µM | [16] 24.5 µM | [17] 24.7 µM

Nc1nc(-c2ccc(Cl)c([N+](=O)[O-])c2)cs1
inactive: [1] > 100 µM | [2] > 100 µM | [3] > 100 µM | [4] > 100 µM | [6] > 100 µM | [7] > 100 µM | [8] 59.4 µM | [9] > 100 µM | [10] > 100 µM | [11] 97.3 µM | [12] 71 µM | [13] > 100 µM | [14] 28.7 µM | [18] 86.5 µM | [15] > 100 µM | [16] > 100 µM | [17] 16.2 µM

COc1ccccc1NC(=O)C1=C(C)NC(C)=C(C(=O)Nc2ccccc2OC)C1c1cccc2c1OCO2
inactive: [1] > 100 µM | [2] 48.2 µM | [3] > 100 µM | [4] > 100 µM | [5] > 100 µM | [6] > 100 µM | [7] > 100 µM | [8] > 100 µM | [9] 41.2 µM | [10] > 100 µM | [11] 20.7 µM | [12] 60.7 µM | [13] 33 µM | [14] 21.4 µM | [18] > 100 µM | [15] > 100 µM | [16] 58.9 µM | [17] > 100 µM

CCOC(=O)C1=C(C)N(NC(=O)Nc2ccccc2)C(=O)C1=P(c1ccccc1)(c1ccccc1)c1ccccc1
inactive: [1] 28.1 µM | [2] 22.4 µM | [3] 36.2 µM | [4] 29.6 µM | [6] 40 µM | [7] 56.5 µM | [8] 63 µM | [9] 21.4 µM | [10] 40.6 µM | [11] 18.8 µM | [12] > 10 µM | [13] 24.2 µM | [14] 28.2 µM | [18] > 100 µM | [15] 52.2 µM | [16] 36.6 µM | [17] 31 µM

CCOC(=O)N(c1ccccc1)N(CC)C(=O)/C(C)=N/Nc1ccc([N+](=O)[O-])cc1
inactive: [1] 17.3 µM | [2] 16 µM | [3] 17.6 µM | [4] 17.3 µM | [5] 17.3 µM | [6] 17.4 µM | [8] 17.1 µM | [9] 11 µM | [10] 17.1 µM | [11] 17.7 µM | [12] 15.4 µM | [13] 16.8 µM | [14] 16.1 µM | [18] 17.2 µM | [15] 17.1 µM | [16] 17.7 µM | [17] 15.5 µM

Nc1ccc(/N=N/c2ccc(-c3ccc(/N=N/c4c(S(=O)(=O)O)cc5cc(S(=O)(=O)O)c(/N=N/c6ccc([N+](=O)[O-])cc6)c(N)c5c4O)cc3)cc2)c2cc(S(=O)(=O)O)ccc12
inactive: [1] > 100 µM | [2] > 100 µM | [3] > 100 µM | [4] > 100 µM | [5] > 100 µM | [6] > 100 µM | [7] > 100 µM | [8] > 100 µM | [9] > 100 µM | [10] > 100 µM | [11] > 100 µM | [12] > 100 µM | [13] > 100 µM | [14] > 100 µM | [18] > 100 µM | [15] > 100 µM | [16] > 100 µM | [17] 97.7 µM
